Active and inactive are the calls of the source. The calls are words filed in the database; no cut-off is given here.
system: C8166; test: Compound was tested for antiviral activity against HIV C 8166 cells at a concentration of 5-50 uM; NS - No significant activity; type: functional, cell-based; settings: Homo sapiens

| Structure (SMILES) | Activity |
| --- | --- |
| CCSc1nc(=O)n(C2C=CC(CO)O2)cc1C (stereo not drawn) | inactive |
| COc1nc(=O)n(C2C=CC(CO)O2)cc1C (stereo not drawn) | inactive |
| COC(=O)C(C(=O)OC)=C1NC(=O)N(C2C=CC(CO)O2)C=C1C (stereo not drawn) | inactive |
